The subject of one test is human T cells. The test can be described thus: eGFP ELISA after eGFP mRNA LNP treatment of human T cells. The conditions noted are these: FIG. 3; CT10, N/P 10, 10 days post-activation, 48 hours. It is filed as cell-based. As to the method:
Reagents were acquired from Abcam, Cambridge, UK unless otherwise stated. […] The assay was performed as directed by the eGFP SimpleStep ELISA® Kit protocol. Briefly; frozen human T cells, previously isolated from fresh human whole blood using a negative selection protocol, were thawed and activated using a triple activator. […] After 48 hours of treatment with mRNA LNPs the T cells were harvested and lysed for total eGFP content.
In order to expose the isolated and activated T cells (Day 0) to the formulated mRNA, 2 ug of CleanCap™ eGFP (Trilink Biotechnologies, San Diego, CA) mRNA-containing LNP was added to 500,000 T cells in 1 mL of complete T cell media, with 1 ug/mL of Recombinant Human ApoE4 (“ApoE”) (Peprotech Inc., Montreal, Canada).
Frozen human T cells, previously isolated from fresh human whole blood using a negative selection protocol, were thawed and activated using a triple activator. At 10 days post-activation, T cells were dosed with CT10 mRNA LNPs LNP comprising DLin-MC3-DMA, PNI 76, PNI 119, PNI 120, PNI 121, and PNI 122 encoding eGFP at 2 pg mRNA per 500,000 cells and N/P 10. Protein expression was measured after 48 hours by eGFP ELISA.

The next test deals with C57BL/6 mice. The test can be described thus: OVA mRNA LNP intramuscular immunization, anti OVA-IgG ELISA. It is filed as in vivo. The settings on record: i.m., days 1 and 10. The source says: LNP with the composition LM02b were used to encapsulate OVA antigen encoded CleanCap® OVA WT mRNA [TriLink L7610] or CleanCap® OVA 5-moU mRNA [TriLink L7210]. A lipid mixture of Ionizable lipid, DOPE, Cholesterol, and PEG-DMG2000, all in ethanol, was mixed with a low PH buffered solution of OVA mRNA at an N/P ratio of 8 using a NanoAssemblr® Ignite™ microfluidic mixer. The LNP were filtered using the Amicon™ ultra filtration technique and characterized for Size, PDI and Encapsulation Efficiency. Size and PDI were measured using dynamic light scattering techniques, and nucleic acid encapsulation efficiency was calculated from the Quant-iT RiboGreen RNA assay. […]
All animals were handled according to the Institutional Animal Care and Use Committee ethics protocols. […] Aliquots of serum samples were thawed and analyzed at appropriate dilutions for OVA expression and for IgG measurements using standard ELISA techniques.
Anti OVA-IgG ELISA of serum samples: Sera from the immunized mice were collected at 2 weeks post second immunization. OVA-specific production of IgG in response to OVA-encoded mRNA in various LNPs were measured by ELISA as described supra. […] After 30 minutes of incubation, a stop solution of 2 N sulphuric acid was added and a plate reader was used to determine absorbance at 450 nm. […]

The structures appear in SMILES notation.

With `CCCCC/C=C\C/C=C\CCCCCCCC(=O)O[C@@H]1[C@@H](OC(=O)CCCCCCC/C=C\C/C=C\CCCCC)CO[C@@H]1COC(=O)CCCN(C)C` (racemic) [PNI 121], the “eGFP expression by eGFP ELISA compared with MC3” value in the test with human T cells is “greater than that of MC3”.
In the case of `CCCCC/C=C\C/C=C\CCCCCCCC(=O)O[C@@H]1[C@@H](OC(=O)CCCCCCC/C=C\C/C=C\CCCCC)CO[C@@H]1COC(=O)CCCN1CCCC1` (racemic) [PNI 539], the “immune response to OVA antigen loaded LNPs” value with C57BL/6 mice is “effectively elicit an immune response similar to OVA antigen”.

These data come from US12636368B2, “Ionizable lipids for nucleic acid delivery” (Global Life Sciences Solutions Canada ULC, priority 2019, dated 2026).
